Data set [1] can be described thus: Oral pharmacokinetic analysis in rats. In kind it is in vivo. The conditions noted are these: niclosamide dose 10 mg/kg by oral gavage, n = 5. The method, then:
The oral pharmacokinetic analysis was conducted at Pharmaron (Ningbo, China). The study protocol was approved and conducted in accordance with the Institutional Animal Care and Use Committee (IACUC) guidelines at Pharmaron. (IACUC; Protocol Number AUP-PK-R-06012019). […] The powders were blended by mortar and pestle and loaded into the capsules using the capsule filling funnel for size 9 (Torpac, Fairfield, NJ, USA). […] Two mobile phases were used. The mobile phase A was a 0.1% formic acid aqueous solution, and the mobile phase B was a mixture of 5% water and 95% acetonitrile (0.1% formic acid). Then, 50 μL of plasma with 5 μL of methanol were added to 200 μL of methanol containing an internal standard mixture for protein precipitation. The samples were vortexed for 30 s and underwent centrifugation for 15 min at 4000 rpm and […]. Thereafter, the supernatant was diluted three times with water, and 2 μL were injected into the HPLC. Furthermore, the resultant particles were subjected to dissolution and the resultant supernatants after centrifugation were analyzed.

Data set [2] can be described thus: Pharmacokinetic evaluation of milled niclosamide extrudate in CD-1 mice. In kind it is in vivo. To be noted: 500 mg/kg suspended in 0.5% Methocel A4M.
The subject of the next data set is SARS-CoV. The conditions noted are these: Vero cells infected by SARS-CoV (2002 pandemic); cited from earlier work.
Another data set concerns COVID-19. The conditions noted are these: Vero E6 cells; cited from earlier work.
Another data set concerns SARS-CoV-2. Type of data set: cell-based. To be noted: assumed that the wet tissue has a density.

Each structure is given as a SMILES string.

Data on four molecules can be found in patent US12076328B2 (priority 2020, dated 2024).

As for `O=C(Nc1ccc([N+](=O)[O-])cc1Cl)c1cc(Cl)ccc1O`, in data set [1], the AUCInf worked out at 0.188 µg·h/mL, the AUClast stood at 0.168 µg·h/mL, the “AUC—% Extrap_obs” value is reported as 8.4% and the Cmax is 0.0483 µg/mL. In data set [1], the MRTInf_obs is listed as 3.56 h, the T1/2 was 1.00 h and the time to peak (Tmax) is on record as 3.60 h.
On to `O=C(Nc1ccc([N+](=O)[O-])cc1Cl)c1cc(Cl)ccc1O` [Crystalline Nic], for which, in data set [2], the AUC0-last amounted to 1.4546 µg·h/mL, the Cmax was determined as 0.6617 µg/mL and the time of peak concentration (Tmax) turned out to be 0.5 h.
As to `CCN(CC)CCCC(C)Nc1ccnc2cc(Cl)ccc12` (stereo not shown) [chloroquine], the IC50 in the data set on SARS-CoV is 4.4 µM; with COVID-19, 1.13 µM.
Take `O=C(Nc1ccc([N+](=O)[O-])cc1Cl)c1cc(Cl)ccc1O` [niclosamide, 5-Chloro-N-(2-chloro-4-nitrophenyl)salicylamide]: the “Estimated niclosamide IC50 for SARS-CoV-2” value in the data set with SARS-CoV-2 is 0.09156 μg/g of wet tissue.

As usually defined, the Cmax is the highest concentration seen after dosing. The Tmax is the time from dosing to the highest level. By IC50 is commonly meant the midpoint of a concentration-inhibition curve.
